In test [1] the target is T1, Protein smoothened (Mus musculus, UniProt P56726). The class given is cell-based, TM3.
Description: Inhibition of Smoothened receptor in mouse TM3 cells transfected with pTA-8xGli-Luc reporter gene assessed as inhibition of 25 nM 3-chloro-4,7-difluoro-N-(4-methoxy-3-(pyridin-4-yl)benzyl)-N-(4-(methylamino)cyclohexyl)benzo[b]thiophene-2-carboxamide-induced Hedgehog pathway activation by Gli shift assay
For test [2], the target named is T1, Protein smoothened. In words: Inhibition of Smoothened receptor in mouse TM3 cells transfected with pTA-8xGli-Luc reporter gene assessed as inhibition of 1 nM 3-chloro-4,7-difluoro-N-(4-methoxy-3-(pyridin-4-yl)benzyl)-N-(4-(methylamino)cyclohexyl)benzo[b]thiophene-2-carboxamide-induced Hedgehog pathway activation by Gli shift assay. The class given is cell-based. In general terms: Reporter assays use an easily measured gene product as a stand-in for the process of interest.

In test [3] the target is Protein smoothened (Homo sapiens, UniProt Q99835). In words: Displacement of [3H]3-chloro-4,7-difluoro-N-(4-methoxy-3-(pyridin-4-yl)benzyl)-N-(4-(methylamino)cyclohexyl)benzo[b]thiophene-2-carboxamide from human Smoothened receptor expressed in CHO-K1 cells by membrane filter binding assay. The format is cell-based. Background: Loss of bound radioactivity is the signal in a displacement assay; it reports binding, not function.
Sequence of Protein smoothened (Homo sapiens, UniProt Q99835) (Q99835 whole entry): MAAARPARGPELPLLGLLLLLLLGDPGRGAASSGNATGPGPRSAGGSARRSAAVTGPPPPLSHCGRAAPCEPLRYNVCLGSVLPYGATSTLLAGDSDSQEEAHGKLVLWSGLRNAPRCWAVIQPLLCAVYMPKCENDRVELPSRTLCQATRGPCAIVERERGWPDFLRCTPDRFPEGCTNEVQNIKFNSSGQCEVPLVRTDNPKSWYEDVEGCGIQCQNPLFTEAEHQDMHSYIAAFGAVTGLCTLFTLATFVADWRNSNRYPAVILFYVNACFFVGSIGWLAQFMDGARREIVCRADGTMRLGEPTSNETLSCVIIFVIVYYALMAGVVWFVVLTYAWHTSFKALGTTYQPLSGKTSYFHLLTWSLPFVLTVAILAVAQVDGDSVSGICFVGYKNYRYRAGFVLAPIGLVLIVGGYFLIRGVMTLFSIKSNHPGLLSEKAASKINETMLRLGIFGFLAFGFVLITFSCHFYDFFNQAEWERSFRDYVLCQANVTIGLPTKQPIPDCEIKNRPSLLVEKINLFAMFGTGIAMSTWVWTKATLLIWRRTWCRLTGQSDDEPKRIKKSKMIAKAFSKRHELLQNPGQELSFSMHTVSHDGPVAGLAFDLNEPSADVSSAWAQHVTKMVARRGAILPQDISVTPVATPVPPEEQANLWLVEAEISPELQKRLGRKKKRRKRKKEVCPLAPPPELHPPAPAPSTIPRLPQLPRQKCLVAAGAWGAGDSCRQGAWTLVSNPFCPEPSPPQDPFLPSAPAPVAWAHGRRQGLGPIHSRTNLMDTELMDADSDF

In test [4] the target is T1, Protein smoothened. Description: Displacement of [3H]3-chloro-4,7-difluoro-N-(4-methoxy-3-(pyridin-4-yl)benzyl)-N-(4-(methylamino)cyclohexyl)benzo[b]thiophene-2-carboxamide from mouse Smoothened receptor expressed in CHO-K1 cells by membrane filter binding assay. The class given is cell-based.

Each structure is given as a SMILES string.

T1 sequence (P56726 whole entry): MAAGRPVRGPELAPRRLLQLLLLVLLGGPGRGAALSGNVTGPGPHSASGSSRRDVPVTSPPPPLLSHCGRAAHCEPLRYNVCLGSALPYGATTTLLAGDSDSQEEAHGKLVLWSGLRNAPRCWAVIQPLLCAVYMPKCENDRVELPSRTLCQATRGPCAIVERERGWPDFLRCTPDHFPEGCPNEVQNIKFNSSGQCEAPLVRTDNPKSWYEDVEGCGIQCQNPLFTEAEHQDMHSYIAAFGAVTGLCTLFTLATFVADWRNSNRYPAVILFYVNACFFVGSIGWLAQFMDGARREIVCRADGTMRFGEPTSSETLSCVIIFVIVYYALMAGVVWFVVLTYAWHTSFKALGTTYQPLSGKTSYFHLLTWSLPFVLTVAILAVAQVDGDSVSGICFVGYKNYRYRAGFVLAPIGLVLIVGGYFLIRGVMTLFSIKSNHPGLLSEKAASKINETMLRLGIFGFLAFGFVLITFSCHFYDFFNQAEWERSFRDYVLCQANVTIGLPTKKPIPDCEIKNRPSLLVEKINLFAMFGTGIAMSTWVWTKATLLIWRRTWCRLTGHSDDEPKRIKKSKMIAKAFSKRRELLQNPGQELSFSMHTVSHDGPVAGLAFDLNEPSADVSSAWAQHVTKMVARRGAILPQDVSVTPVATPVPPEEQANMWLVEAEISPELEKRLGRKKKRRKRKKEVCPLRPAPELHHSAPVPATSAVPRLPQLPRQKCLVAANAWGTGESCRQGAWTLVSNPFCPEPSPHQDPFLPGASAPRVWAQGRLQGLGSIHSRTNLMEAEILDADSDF

As a reminder, the IC50 is the concentration at which inhibition is half-maximal. `NC(=O)c1ccc(N2CCN(c3nnc(Cc4ccccc4)c4ccccc34)CC2)nc1`: the half-inhibitory concentration (IC50) is 149 nM against Protein smoothened [1], 46 nM on Protein smoothened [2], 724 nM on Protein smoothened [3] and 173 nM at Protein smoothened [4].

Turning to `c1ccc(N2CCN(c3nnc(Cc4ccncc4)c4ccccc34)CC2)nc1`, the IC50 at Protein smoothened [1] was 4490 nM; at Protein smoothened [2], 690 nM; on Protein smoothened [3], > 5000 nM; at Protein smoothened [4], 3690 nM.

`FC(F)(F)c1ccc(N2CCN(c3nnc(Cc4ccccc4)c4[nH]cnc34)CC2)nc1`: the concentration for half-maximal inhibition (IC50) was 1550 nM against Protein smoothened [1], 724 nM on Protein smoothened [2], > 5000 nM at Protein smoothened [3] and > 5000 nM on Protein smoothened [4].

Take `C[C@H]1CN(c2ccc(C#N)cn2)CCN1c1nnc(Cc2ccccc2)c2ccccc12`: the concentration for half-maximal inhibition (IC50) against Protein smoothened [1] amounted to 210 nM; on Protein smoothened [2], 25 nM; at Protein smoothened [3], 17 nM; at Protein smoothened [4] it was 22 nM.

On to `N#Cc1ccc(Cc2nnc(N3CCN(c4ccc(C#N)cn4)CC3)c3ccccc23)cc1`, for which the IC50 on Protein smoothened [1] worked out at 256 nM; on Protein smoothened [2], 20 nM; at Protein smoothened [3] it was 34 nM; at Protein smoothened [4] it was 23 nM.

Take `N#Cc1ccc(N2CCN(c3nnc(Cc4ccc(F)cc4)c4ccccc34)CC2)nc1`: the IC50 stood at 975 nM on Protein smoothened [1], 112 nM at Protein smoothened [2], 103 nM on Protein smoothened [3] and 69 nM on Protein smoothened [4].

As to `N#Cc1ccc(N2CCN(c3nnc(Cc4ccc(C(F)(F)F)cc4)c4ccccc34)CC2)nc1`, the IC50 on Protein smoothened [1] came to 1240 nM; at Protein smoothened [2], 366 nM; on Protein smoothened [3], 185 nM; at Protein smoothened [4], 226 nM.

Consider `N#Cc1ccc(N2CCN(c3nnc(Cc4ccccc4)c4ccccc34)CC2)nc1`, for which the IC50 against Protein smoothened [1] came out at 821 nM; at Protein smoothened [2], 69 nM; on Protein smoothened [3], 112 nM; on Protein smoothened [4], 71 nM.

As to `C[C@H]1CN(c2nnc(Cc3ccccc3)c3ccccc23)CCN1c1ccc(C#N)cn1`, the IC50 was 735 nM against Protein smoothened [1], 79 nM on Protein smoothened [2], 59 nM at Protein smoothened [3] and 66 nM at Protein smoothened [4].

In the case of `N#Cc1ccc(N2CCN(c3ncc(Cc4ccccc4)c4ccccc34)CC2)nc1`, the 50% inhibitory concentration (IC50) against Protein smoothened [1] is 2990 nM; at Protein smoothened [2], 1430 nM; at Protein smoothened [3], > 5000 nM; on Protein smoothened [4], > 5000 nM.

Turning to `FC(F)(F)c1ccc(N2CCN(c3nnc(Cc4ccccc4)c4ccccc34)CC2)nc1`, the IC50 against Protein smoothened [1] worked out at 1330 nM; at Protein smoothened [2], 134 nM; on Protein smoothened [3], 95 nM; at Protein smoothened [4], 74 nM.

For the compound `N#Cc1ccc(C2CCN(c3nnc(Cc4ccccc4)c4ccccc34)CC2)cc1`, the IC50 was > 5000 nM on Protein smoothened [1], 3780 nM on Protein smoothened [2], > 5000 nM at Protein smoothened [3] and > 5000 nM at Protein smoothened [4].

On to `CC(C)(N)c1ccc(N2CCN(c3nnc(Cc4ccccc4)c4ccccc34)CC2)nc1`, for which the IC50 against Protein smoothened [1] stood at 42 nM; at Protein smoothened [2] it was 1.3 nM; on Protein smoothened [3], 15 nM; at Protein smoothened [4], 6 nM.

As to `CC(O)c1ccc(N2CCN(c3nnc(Cc4ccccc4)c4ccccc34)CC2)nc1` (stereo unspecified), the IC50 against Protein smoothened [1] worked out at 222 nM; on Protein smoothened [2], 38 nM; at Protein smoothened [3], 67 nM; on Protein smoothened [4], 61 nM.

Take `N#Cc1ccc(N2CCN(c3nnc(Cc4ccc(Cl)cc4)c4ccccc34)CC2)nc1`: the concentration for half-maximal inhibition (IC50) came to 498 nM at Protein smoothened [1], 48 nM on Protein smoothened [2], 25 nM on Protein smoothened [3] and 20 nM at Protein smoothened [4].

Turning to `N#Cc1ccc(N2CCN(c3cnc(Cc4ccccc4)c4ccccc34)CC2)nc1`, the IC50 against Protein smoothened [1] is 2500 nM; at Protein smoothened [2], 910 nM; at Protein smoothened [3], > 5000 nM; at Protein smoothened [4], > 5000 nM.

On to `OC1(c2ccc(N3CCN(c4nnc(Cc5ccccc5)c5ccccc45)CC3)nc2)CC1`, for which the IC50 at Protein smoothened [1] was 345 nM; on Protein smoothened [2], 55 nM; at Protein smoothened [3], 21 nM; at Protein smoothened [4], 10 nM.

Regarding `COC(=O)c1ccc(Cc2nnc(N3CCN(c4ccc(C#N)cn4)CC3)c3ccccc23)cc1`, the IC50 on Protein smoothened [1] is > 5000 nM; on Protein smoothened [2] it was 265 nM; at Protein smoothened [3], 2930 nM; at Protein smoothened [4] it was 165 nM.

For the compound `C[C@@H]1CN(c2ccc(C#N)cn2)CCN1c1nnc(Cc2ccccc2)c2ccccc12`, the IC50 is 738 nM on Protein smoothened [1], 86 nM on Protein smoothened [2], 217 nM on Protein smoothened [3] and 180 nM at Protein smoothened [4].

Turning to `N#Cc1ccc(N2CCN(c3nnc(Cc4ccc(C(=O)O)cc4)c4ccccc34)CC2)nc1`, the IC50 against Protein smoothened [1], on Protein smoothened [2], at Protein smoothened [3] and on Protein smoothened [4] was > 5000 nM each time.

Turning to `N#Cc1ccc(N2CCC(c3cn(Cc4ccccc4)c4ccccc34)CC2)nc1`, the IC50 came out at 1510 nM against Protein smoothened [1], 382 nM on Protein smoothened [2], 401 nM at Protein smoothened [3] and 386 nM on Protein smoothened [4].

Regarding `c1ccc(Cc2nnc(N3CCN(c4ccccn4)CC3)c3ccccc23)cc1`, the IC50 against Protein smoothened [1] was 772 nM; on Protein smoothened [2], 258 nM; at Protein smoothened [3], 1240 nM; on Protein smoothened [4], 643 nM.

As to `c1ccc(Cc2nnc(N3CCN(c4ccccc4)CC3)c3ccccc23)cc1`, the IC50 against Protein smoothened [1] stood at 2250 nM; on Protein smoothened [2], 414 nM; at Protein smoothened [3], 4240 nM; at Protein smoothened [4], 1100 nM.

Turning to `O=C(O)c1ccc(N2CCN(c3nnc(Cc4ccccc4)c4ccccc34)CC2)nc1`, the concentration for half-maximal inhibition (IC50) against Protein smoothened [1] was > 5000 nM; at Protein smoothened [2], 2670 nM; on Protein smoothened [3] it was 2260 nM; on Protein smoothened [4], 1640 nM.

As for `N#Cc1ccc(N2CCN(c3nnc(Cc4cccc(Cl)c4)c4ccccc34)CC2)nc1`, the IC50 at Protein smoothened [1] turned out to be 693 nM; at Protein smoothened [2], 112 nM; on Protein smoothened [3] it was 82 nM; on Protein smoothened [4], 54 nM.

Regarding `CN(C)Cc1ccc(N2CCN(c3nnc(Cc4ccccc4)c4ccccc34)CC2)nc1`, the half-maximal inhibitory concentration (IC50) at Protein smoothened [1] turned out to be 246 nM; on Protein smoothened [2] it was 14 nM; on Protein smoothened [3] it was 654 nM; at Protein smoothened [4] it was 287 nM.

As to `CC(O)(CO)c1ccc(N2CCN(c3nnc(Cc4ccccc4)c4ccccc34)CC2)nc1` (racemic), the IC50 was 136 nM against Protein smoothened [1], 17 nM at Protein smoothened [2], 70 nM at Protein smoothened [3] and 28 nM at Protein smoothened [4].

As for `N#Cc1ccc(N2CCCN(c3nnc(Cc4ccccc4)c4ccccc34)CC2)nc1`, the IC50 came to 1630 nM against Protein smoothened [1], 210 nM on Protein smoothened [2], 391 nM at Protein smoothened [3] and 153 nM on Protein smoothened [4].

In the case of `FC(F)(F)c1ccc(N2CCN(c3nnc(Cc4ccccc4)c4ccoc34)CC2)nc1`, the concentration for half-maximal inhibition (IC50) against Protein smoothened [1] was > 5000 nM; at Protein smoothened [2], 1800 nM; at Protein smoothened [3], > 5000 nM; at Protein smoothened [4], > 5000 nM.

As for `FC(F)(F)c1ccc(N2CCN(c3nnc(Cc4ccccc4)c4occc34)CC2)nc1`, the IC50 on Protein smoothened [1] was determined as 2560 nM; at Protein smoothened [2], 212 nM; at Protein smoothened [3], 230 nM; on Protein smoothened [4], 139 nM.

On to `CC(=O)NCc1ccc(N2CCN(c3nnc(Cc4ccccc4)c4ccccc34)CC2)nc1`, for which the IC50 is 327 nM against Protein smoothened [1], 35 nM at Protein smoothened [2], 196 nM at Protein smoothened [3] and 96 nM on Protein smoothened [4].

Consider `NS(=O)(=O)c1ccc(N2CCN(c3nnc(Cc4ccccc4)c4ccccc34)CC2)nc1`, for which the IC50 is 919 nM against Protein smoothened [1], 104 nM on Protein smoothened [2], 306 nM on Protein smoothened [3] and 90 nM on Protein smoothened [4].

Take `OCc1ccc(N2CCN(c3nnc(Cc4ccccc4)c4ccccc34)CC2)nc1`: the IC50 against Protein smoothened [1] is 2450 nM; at Protein smoothened [2], 374 nM; on Protein smoothened [3], 484 nM; at Protein smoothened [4] it was 187 nM.

As to `C[C@@H]1CN(c2nnc(Cc3ccccc3)c3ccccc23)CCN1c1ccc(C#N)cn1`, the IC50 at Protein smoothened [1] was determined as 244 nM; at Protein smoothened [2], 30 nM; at Protein smoothened [3] it was 34 nM; at Protein smoothened [4] it was 17 nM.

For the origin of these results see ChEMBL document CHEMBL1136988, “1-amino-4-benzylphthalazines as orally bioavailable smoothened antagonists with antitumor activity” (J Med Chem, 2009).
